Data on 8 compounds can be found in patent US20090170898A1, “Sulphonamide Derivatives as Modulators of the Glucocorticoid Receptor” (priority 2006, published 2009).

The target in the assay is T1, recombinant human GR (Homo sapiens, UniProt P04150).
T1 construct: purchased Panvera/Invitrogen P2812 (kit P2893)
T1 sequence (P04150 1-777): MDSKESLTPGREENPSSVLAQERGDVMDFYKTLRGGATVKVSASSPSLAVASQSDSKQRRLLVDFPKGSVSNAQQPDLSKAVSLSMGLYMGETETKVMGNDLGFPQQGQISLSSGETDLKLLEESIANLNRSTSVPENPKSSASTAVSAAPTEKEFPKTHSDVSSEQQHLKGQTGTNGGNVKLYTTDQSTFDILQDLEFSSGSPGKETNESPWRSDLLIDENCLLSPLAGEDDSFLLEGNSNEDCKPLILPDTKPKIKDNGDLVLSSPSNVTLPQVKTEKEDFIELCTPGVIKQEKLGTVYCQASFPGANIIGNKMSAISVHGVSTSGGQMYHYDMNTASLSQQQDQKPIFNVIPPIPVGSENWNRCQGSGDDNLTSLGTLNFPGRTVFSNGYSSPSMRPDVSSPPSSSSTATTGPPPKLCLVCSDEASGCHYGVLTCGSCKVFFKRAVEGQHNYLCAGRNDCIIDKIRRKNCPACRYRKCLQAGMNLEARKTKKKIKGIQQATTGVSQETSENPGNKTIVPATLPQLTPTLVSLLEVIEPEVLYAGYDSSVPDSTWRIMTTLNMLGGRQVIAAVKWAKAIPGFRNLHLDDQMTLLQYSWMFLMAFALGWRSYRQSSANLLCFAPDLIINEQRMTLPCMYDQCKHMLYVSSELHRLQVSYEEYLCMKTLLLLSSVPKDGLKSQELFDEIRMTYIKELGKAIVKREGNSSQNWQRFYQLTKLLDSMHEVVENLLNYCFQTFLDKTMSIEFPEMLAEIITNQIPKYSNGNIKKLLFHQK
Kind of assay: Human Glucocorticoid Receptor (GR) fluorescence polarization binding assay (GRhuFL_FP_v2). Conditions: GS Red tracer, 2 hours at room temperature, 100% control 10 μM Dexamethasone, read-out: GRhuFL_FP_v2 (GR-binders) IC50. The protocol: Human Glucocorticoid Receptor (GR) Assay
The assay is based on a commercial kit from Panvera/Invitrogen (Part number P2893). The assay technology is fluorescence polarization. […] The GR and Stabilizing Peptide reagents are stored at −70° C. while the GS Red is stored at −20° C. Also included in the kit are 1M DTT (Panvera, Part number P2325, stored at −20° C.) and GR Screening buffer 10× (Panvera, Part number P2814, stored at −70° C. initially but once thawed stored at room temperature). Avoid repeated freeze/thaws for all reagents. The GR Screening buffer 10× comprises 100 mM potassium phosphate, 200 mM sodium molybdate, 1 mM EDTA and 20% DMSO.
0% control was 100% DMSO and 100% control was 10 μM Dexamethasone. Background solution (8 μL; assay buffer 10×, Stabilizing Peptide, DTT and ice cold MQ water) was added to the background wells. GS Red solution (7 μL; assay buffer 10×, Stabilizing Peptide, DTT, GS Red and ice cold water) was added to all wells except background wells. GR solution (7 μL; assay buffer 10×, Stabilizing Peptide, DTT, GR and ice cold water) was added to all wells. The plate was sealed and incubated in a dark at room temperature for 2 hours.
A general note: Polarisation of emitted light reports the rotation of a fluorescent probe.
The term IC50 denotes the point on the concentration scale where inhibition reaches its midpoint. Regarding `Cc1cc(C)c(S(=O)(=O)N[C@H]2CCN(c3cccc4ncccc34)C2)c(C)c1` [Example 1, 2,4,6-Trimethyl-N-[(3S)-1-quinolin-5-ylpyrrolidin-3-yl]benzenesulfonamide], the IC50 was determined as 48 nM.

For `O=S(=O)(N[C@H]1CCN(c2cccc3ncccc23)C1)c1c(Cl)cc(Cl)cc1Cl` [Example 2, 2,4,6-Trichloro-N-[(3S)-1-quinolin-5-ylpyrrolidin-3-yl]benzenesulfonamide], the IC50 turned out to be 17 nM.

In the case of `O=S(=O)(N[C@H]1CCN(c2cccc3c2cnn3-c2ccc(F)nc2)C1)c1c(Cl)cc(Cl)cc1Cl` [Example 3, 2,4,6-Trichloro-N-[(3S)-1-[1-(6-fluoropyridin-3-yl)-1H-indazol-4-yl]pyrrolidin-3-yl]benzenesulfonamide], the IC50 turned out to be 19 nM.

With `O=S(=O)(N[C@H]1CCN(c2cccc3c2cnn3-c2ccc(F)cc2)C1)c1c(Cl)cc(Cl)cc1Cl` [Example 4, 2,4,6-Trichloro-N-{(3S)-1-[1-(4-fluorophenyl)-1H-indazol-4-yl]pyrrolidin-3-yl}benzenesulfonamide], the IC50 worked out at 25 nM.

Take `Cc1cc(Cl)cc(Cl)c1S(=O)(=O)N[C@H]1CCN(c2cccc3c2cnn3-c2ccc(F)nc2)C1` [Example 5, 2,4-Dichloro-N-{(3S)-1-[1-(6-fluoropyridin-3-yl)-1H-indazol-4-yl]pyrrolidin-3-yl}-6-methylbenzenesulfonamide]: the IC50 worked out at 25 nM.

On to `Cc1cc(Cl)cc(Cl)c1S(=O)(=O)N[C@H]1CCN(c2cccc3ncccc23)C1` [Example 6, 2,4-Dichloro-6-methyl-N-[(3S)-1-quinolin-5-ylpyrrolidin-3-yl]benzenesulfonamide], for which the IC50 was 26 nM.

As for `Cc1cc(C)c(S(=O)(=O)N[C@H]2CCN(c3cccc4c3cnn4-c3ccc(F)nc3)C2)c(C)c1` [Example 7, N-{(3S)-1-[1-(6-Fluoropyridin-3-yl)-1H-indazol-4-yl]pyrrolidin-3-yl}-2,4,6-trimethylbenzenesulfonamide], the IC50 was 38 nM.

Consider `Cc1nn(C2CCCC2)c(C)c1S(=O)(=O)N[C@H]1CCN(c2cccc3c2cnn3-c2ccc(F)cc2)C1` [Example 9, 1-Cyclopentyl-N-{(3S)-1-[1-(4-fluorophenyl)-1H-indazol-4-yl]pyrrolidin-3-Yl}-3,5-dimethyl-1H-pyrazole-4-sulfonamide], for which the IC50 is 120 nM.
